Where a name gives a salt, the structure may show the parent alone.
Experiments:
[1] = test system: TMK1 cells; assay: TMK1 cell migration in Boyden's chamber; format: cell-based; conditions: 4 hours
Protocol: TMK1 cells, low-differentiating epithelial cells, were treated with trypsin. […] The culture medium in the lower well was then subjected to fixing and staining, and cells which had migrated therein were counted. Experiments were conducted concurrently in three chambers.
Each value will be presented as a mean ±S.D. and with respect to each compound, numbers of cells will be presented in the order of a) control, b) each pyrimidine compound (whose concentration will be specifically indicated), c) 10 ng/ml of EGF, and d) a mixed solution of each pyrimidine compound + EGF.

[2] = test system: CAMs (chorioallantoic membranes); assay: Angiogenesis on chorioallantoic membranes (CAM); format: in vivo, chick; conditions: for number of new blood vessels (M±SE): day 3
Protocol: For a bFGF, various assay systems assessing the angiogenesis activity of the bFGF as an index are usable. The shells of chick embryos are fenestrated centrally corresponding to the air spaces thereof, whereby the chorioallantoic membranes (CAMS) are exposed. Solutions of the bFGF and a test medicament at various concentrations were applied onto the respective CAMs. Incubation was continued. Several days later, the degrees of angiogenesis were investigated under a microscope. This method is preferably employed. […] The test medicament is therefore found to be useful for the reduction of a time required for the construction of a skin-equivalent tissue. […] Also with respect to a VEGF, its angiogenesis activity can be assayed in a similar system.
The shells of eggs on the 10th day after fertilization were fenestrated centrally corresponding to air spaces thereof, whereby CAMs (chorioallantoic membranes) were exposed. A nylon film in the form of a square of 3 mm in side was placed over the CAM, and onto the nylon film, a solution of bFGF as a growth and/or differentiation factor or the pyrimidine compound according to the present invention was dropped in an amount of 8 ul. Incubation was continued at 38° C. On the 72nd hour, the eggs were moved to a cool place controlled at 4° C. After the eggs were left over for 2 to 3 hours there, the degree of angiogenesis in each egg was investigated under a microscope. The angiogenesis was determined based on the number of radial blood vessels equal to or larger than 0.1 mm in diameter. Onto the nylon disk placed over the CAMS, 1, 10, and 100 ng/ml solutions of recombinant human bFGF (product of Genzyme Corporation) in physiological saline and 0.01 to 1 mM solutions of the individual pyrimidine compound in physiological saline were applied singly or in combination.

[3] = test system: fractured tibia; assay: Tibia fracture model, histology on the 7th day; format: in vivo, Wistar rat; conditions: 5 mg/kg i.p. once a day, 7 days
Protocol: The tibia of each Wistar (body weight: 260-330 g) was broken manually and stabilized in situ by using a 22G syringe needle as an intramedullary nail under anesthesia by pentobarbital. The rats were divided into two groups. To one of the groups, 2-piperazino-6-methyl-5-oxo-5,6-dihydro(7H)pyrro[3,4-d]pyrimidine maleate was intraperitoneally administered at 5 mg/kg once a day everyday for 7 days from immediately after the fracture. The other group was used as a control group, to which physiological saline was administered likewise. The rats in both the groups were sacrificed on the 7th day. The broken tibia of each rat was […], embedded in paraffin and then subjected to HE staining. The texture of the fractured site was pathohistologically examined. In the control group, proliferation mesenchymal cells, which were considered to be derived from periosteal cells, and membranous ossification of an osteoid tissue were observed centering around the fractured site on the 7th day after the fracture. Further, honeycomb-shaped proliferation of chondrocytes in a small number associated with formation of a cartilage matrix was observed inside the mesenchymal cells.

[4] = test system: skin or muscle cut; assay: Skin/muscle cut-suture rat model; format: in vivo; conditions: scanning electron microscope; indicative of the possibility
From the text: As a feature specific to this model, collagen fibers form a plate-like structure so that they cross at right angles with muscle fibers, and macrophages accumulate on the plate-like structure. This plate-like collagen is considered to serve in such a way that it prevents detachment or fraying of both cut ends of muscle fibers and assists formation of an anastomosis.

For `CN1Cc2nc(N3CCNCC3)ncc2C1=O` [Compound B, 2-piperazino-6-methyl-5-oxo-5,6-dihydro(7H)pyrro[3,4-d]pyrimidine maleate], the “numbers of cells counted (migrated), mean ±S.D.” value ([1]; compound 1 mM + EGF 10 ng/ml) was 111.2±8.0, the “numbers of cells counted (migrated), mean ±S.D.” value ([1]; compound alone, 1 mM) was 7.4±3.0 and the “number of new vessels (M±SE)” value ([2]; bFGF (concentration not stated) + 0.01 mM compound) was 8.1±1.1. The “number of new vessels (M±SE)” value ([2]; bFGF (concentration not stated) + 0.1 mM compound) was 8.5±0.8, the “number of new vessels (M±SE)” value ([2]; bFGF (concentration not stated) + 1 mM compound) was 9.3±0.5 and the “angiogenesis ability of bFGF” value ([2]; bFGF + compound) was “synergistically enhanced”. The “number of new blood vessels (M±SE)” value ([2]; compound alone 0.01 mM) was 3.5±0.9, the “number of new blood vessels (M±SE)” value ([2]; compound alone 0.1 mM) was 3.4±0.5 and the “number of new blood vessels (M±SE)” value ([2]; compound alone 1 mM) was 4.4±0.7. For the same compound, the “proliferation of mesenchymal cells at the fractured site” value [3] was “marked proliferation of mesenchymal cells”, the “proliferation of chondrocytes associated with formation of a hyaline cartilage matrix enchondral ossification” value ([3]; vs control group) was “in a quantity apparently much greater than that of the control group” and the accumulation of macrophages [4] was “effectively acts for the promotion of the formation of such plate-like collagen and the accumulation of macrophages”. For the same compound, the “formation of plate-like collagen” value [4] was “effectively acts for the promotion of the formation of such plate-like collagen”.
